Reference: ChEMBL document CHEMBL1132953, “Design and synthesis of pyrrolidine-5,5-trans-lactams (5-oxo-hexahydro-pyrrolo[3,2-b]pyrroles) as novel mechanism-based inhibitors of human cytomegalovirus protease. 1. The alpha-methyl-trans-lactam template” (J Med Chem, 2000)

What was measured:
[1] = Tested for inhibitory activity against elastase.
Prothrombin = Prothrombin (Homo sapiens, UniProt P00734); assay: Tested for inhibitory activity against Thrombin.

Work on CC(=O)OCC(=O)N1C(=O)C[C@@H]2[C@@H]1CCN2C(=O)OCc1ccccc1 yielded an IC50 [1] of 7.58 µM and an IC50 (Prothrombin) of 6.2 µM.
